Assay results: the supplement of paper PMC4862054

What was measured:
Details in all cases: incubation time: 72 h
Hs578T [1] = assay: normalised response (% of control), CellTiter-Glo; higher = more viable cells (100 = DMSO, 0 = benzethonium chloride kill control)
Procedure: (§1)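 DSRT, 72 h incubation, CellTox Green / CellTiter-Glo readout. Signal is normalised to DMSO and benzethonium chloride controls. Value is the normalised response at dose 3.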

BT-549 [2] = assay: as above
Procedure: as §1

HCC1143 [3] = assay: as above
Procedure: as §1

CAL-148 [4] = assay: as above
Procedure: as §1

MDA-MB-436 [5] = assay: as above
Procedure: as §1

HCC1937 [6] = assay: as above
Procedure: as §1

MFM-223 [7] = assay: as above
Procedure: as §1

MCF-10A [8] = assay: as above
Procedure: as §1

BT-474 [9] = assay: as above
Procedure: as §1

HDQ-P1 [10] = assay: as above
Procedure: as §1

CAL-85-1 [11] = assay: as above
Procedure: as §1

MDA-MB-468 [12] = assay: as above
Procedure: as §1

DU-4475 [13] = assay: as above
Procedure: as §1

CAL-51 [14] = assay: as above
Procedure: as §1

MDA-MB-453 [15] = assay: as above
Procedure: as §1

MDA-MB-231 [16] = assay: as above
Procedure: as §1

HCC1599 [17] = assay: as above
Procedure: as §1

CAL-120 [18] = assay: as above
Procedure: as §1

SK-BR-3 = assay: as above
Procedure: as §1

BT-549 [19] = assay: normalised response (% of control), CellTox Green; higher = less cell death (100 = DMSO, 0 = benzethonium chloride kill control)
Outline: (§2)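 Each entry is the normalised signal at a single concentration within a series. The series comprised 5 concentrations in 10-fold steps over a compound-specific 10,000-fold range, placed in 384-well plates into which breast cancer cell lines were seeded as 20 µl suspension and incubated 72 h. CellTox Green (485/520 nm) fluorescence and then CellTiter-Glo luminescence were read, with signals normalised per plate to 0.1 % DMSO (100) and a positive kill control (0).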

HCC1143 [20] = assay: as above
Outline: as §2

CAL-148 [21] = assay: as above
Outline: as §2

HCC1937 [22] = assay: as above
Outline: as §2

MFM-223 [23] = assay: as above
Outline: as §2

MCF-10A [24] = assay: as above
Outline: as §2

BT-474 [25] = assay: as above
Outline: as §2

HDQ-P1 [26] = assay: as above
Outline: as §2

CAL-85-1 [27] = assay: as above
Outline: as §2

DU-4475 [28] = assay: as above
Outline: as §2

CAL-51 [29] = assay: as above
Outline: as §2

MDA-MB-453 [30] = assay: as above
Outline: as §2

MDA-MB-231 [31] = assay: as above
Outline: as §2

HCC1599 [32] = assay: as above
Outline: as §2

CAL-120 [33] = assay: as above
Outline: as §2

Hs578T [34] = assay: as above
Outline: as §2

MDA-MB-436 [35] = assay: as above
Outline: as §2

MDA-MB-468 [36] = assay: as above
Outline: as §2

SMILES	normalised response (Hs578T [1]) [%]	normalised response (BT-549 [2]) [%]	normalised response (HCC1143 [3]) [%]	normalised response (CAL-148 [4]) [%]	normalised response (MDA-MB-436 [5]) [%]	normalised response (HCC1937 [6]) [%]	normalised response (MFM-223 [7]) [%]	normalised response (MCF-10A [8]) [%]	normalised response (BT-474 [9]) [%]	normalised response (HDQ-P1 [10]) [%]	normalised response (CAL-85-1 [11]) [%]	normalised response (MDA-MB-468 [12]) [%]	normalised response (DU-4475 [13]) [%]	normalised response (CAL-51 [14]) [%]	normalised response (MDA-MB-453 [15]) [%]	normalised response (MDA-MB-231 [16]) [%]	normalised response (HCC1599 [17]) [%]	normalised response (CAL-120 [18]) [%]	normalised response (SK-BR-3) [%]	normalised response (BT-549 [19]) [%]	normalised response (HCC1143 [20]) [%]	normalised response (CAL-148 [21]) [%]	normalised response (HCC1937 [22]) [%]	normalised response (MFM-223 [23]) [%]	normalised response (MCF-10A [24]) [%]	normalised response (BT-474 [25]) [%]	normalised response (HDQ-P1 [26]) [%]	normalised response (CAL-85-1 [27]) [%]	normalised response (DU-4475 [28]) [%]	normalised response (CAL-51 [29]) [%]	normalised response (MDA-MB-453 [30]) [%]	normalised response (MDA-MB-231 [31]) [%]	normalised response (HCC1599 [32]) [%]	normalised response (CAL-120 [33]) [%]	normalised response (Hs578T [34]) [%]	normalised response (MDA-MB-436 [35]) [%]	normalised response (MDA-MB-468 [36]) [%]
COC1=C2C[C@@H](C)C[C@H](OC)[C@H](O)[C@@H](C)/C=C(\C)[C@H](OC(N)=O)[C@@H](OC)/C=C\C=C(/C)C(=O)NC(=CC1=O)C2=O [Geldanamycin] (100 nM)	107	96.5	104	118	107	101	115	103	102	102	108	106	106	84.7	113	113	109	109	105	99.4	76.5	106	111	95.2	95.5	100	106	96.5	104	96	106	103	106	99.7			
Cn1c(=O)c(F)c(Nc2ccc(I)cc2F)c2c(=O)n(C[C@@H](O)CO)cnc21 [TAK-733] (10 nM)	96.8	104	92.6	97.2	104	88	102	53.8	89.8	74.5	93.7	92.6	38.9	84.7	115	90.3	82.3	97.6	107	105	118	107		104	90.9	103	-40.4	104	95.9	104	112	99.2	119	103	71.8	114	113
C[C@@H]1C=C2C(=O)O[C@@H]3CC[C@H](C1)[C@]23O [Galiellalactone] (500 nM)	104	101	109	120	101	107	110	109	102	103	100	101	103	109	105	110	101	106	108	89.4	73.3	99.8	100	96.2	104	99.7	110	93.5	105	115	104	114	116	103	105		126
CCS(=O)(=O)c1cccc(-c2cc(C(=O)NC3CCN(C)CC3)c(C)c3[nH]c4ncc(C)cc4c23)c1 [TAK-901] (10 nM)	108	101	98.7	104	110	93.4	109	104	102	97	100	94.7	107	92.4	103	101	120	99.6	108	72.2	69	105	120	101	78.2	100	108	95.7	101	98.6	101	100	104	103		96	77.1
COC1=CC(c2cc3ccccc3[nH]2)=N/C1=C\c1[nH]c(C)cc1C [Obatoclax] (100 nM)	92.6	97.5	93.5	86	91.4	91.3	96.3	97.3	88.8	99.6	89.2	88.4	99.5	87.8	104	88.4	93	98.1	90.5	103	89.8	103	88.3	93.8	93.4	63	53.7	87.6	98.6	88.2	104	66.7	98.6	95	84.5		96.5
CC(C)(C)c1cc(NC(=O)Nc2ccc(-c3cn4c(n3)sc3cc(OCCN5CCOCC5)ccc34)cc2)no1 [Quizartinib] (10 nM)	102	108	104	103	109	98	105	105	109	101	103	103	97.9	71.4	101	108	89	108	104	104	125	108		102	106	97.6	92.7	107	99.3	89.8	93.9	99.1	117	94.6	107	95.2	137
C#Cc1cccc(Nc2ncnc3cc(OC)c(OCCCCCCC(=O)NO)cc23)c1 [CUDC-101] (100 nM)	94.7	105	90.9	95.5	96.8	93.4	78.2	65.4	91.8	84	78.5	74.1	96.3	62.1	60.1	90.9	105	93.3	84.2	115	111	82.4	89.5	103	101	97	109	93.8	97	82.4	101	70.3	103	84.2	73.6		106
CS(=O)(=O)CCNCc1ccc(-c2ccc3ncnc(Nc4ccc(OCc5cccc(F)c5)c(Cl)c4)c3c2)o1 [Lapatinib] (10 nM)	106	105	103	112	100	99.2	109	95.5	101	95.7	101	99.1	106	90.1	105	103	97.6	107	87.1	91.8	109		90.5	105	100	97.8	82.1	87.4	101	99.4	103	76.9	103	101	104	107	87.9
Nc1nccc(-c2c(-c3ccc(F)cc3)ncn2C2CCCCC2)n1 (100 nM)	104	98.3	112	105	113	102	102	105	99.9	95.2	98.9	96.2	101	84.4	104	106	102	105	97.3	93.9	100	101	78.4	104	110	103	104	97.7	107	94.3	98.8	112	98.9	102	86.7	81.8	
